Consider one compound from publication PMC13002968 (Oncogenesis, 2026).

SMILES strings stand for the structures.

The assay concerns the target programmed cell death protein 1 (PD-1) (Homo sapiens, UniProt Q15116). Description: SPR. Format: binding.

programmed cell death protein 1 (PD-1), sequence (Q15116 25-288): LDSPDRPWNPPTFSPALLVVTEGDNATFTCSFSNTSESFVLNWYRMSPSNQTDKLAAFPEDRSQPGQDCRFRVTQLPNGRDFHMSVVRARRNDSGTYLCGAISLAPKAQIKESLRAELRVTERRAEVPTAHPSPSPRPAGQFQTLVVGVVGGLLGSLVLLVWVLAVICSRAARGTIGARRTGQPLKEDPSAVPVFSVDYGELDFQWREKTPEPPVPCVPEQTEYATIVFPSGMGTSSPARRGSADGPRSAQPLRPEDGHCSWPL

For orientation: Kd means the constant that tells how readily two partners part at equilibrium. Read a high Kd as weaker binding. For the compound `C/C(O)=C(\C#N)C(=O)Nc1ccc(C(F)(F)F)cc1` [TER, teriflunomide], the Kd worked out at 1.47 nM.
